Measurements from patent publication US5210097A, “Xanthocillin X monomethyl ether derivative and antitumor agent containing the same” (Meiji Seika Kaisha Ltd., priority 1989, dated 1993).
≈ marks a conversion by molar mass, not a printed value.

Experiments:
[1] = Acute toxicity, intraperitoneal; conditions: mouse, in vivo, ip, female Balb/c mice aged 7 weeks
Meth-A cells = assay: Cytotoxicity in vitro (MTT assay, 3 days incubation); type: cell-based, murine; conditions: Mus musculus, 72 h, read-out: 50% inhibition concentration (IC50)
Protocol: The cytotoxic effect of each compound of the present invention in vitro was evaluated in the following manner. Dulbecco's modified MEM medium containing 10% (v/v) of fetal calf serum was used as a medium while Meth-A solid tumor was used as a tumor. The cytotoxic effect of each compound on this tumor was examined. Meth-A cells, which had been subcultured in a carbon dioxide gas incubator, were suspended in the above-mentioned medium so as to give a density of 5×10^4 cells/ml. 135 μl portions of the suspension thus obtained were poured into 96-well microtiter plates. Each test compound was dissolved in a small amount of DMF and diluted with Dulbecco's modified MEM medium to a predetermined concentration. 15 μl portions of test compound solutions at various concentrations were added thereto and then incubated in a carbon dioxide gas incubator for 3 days. After the completion of the incubation, the 50% inhibition concentration (IC50) was determined by the MTT assay method ["Igaku no Ayumi", vol. 128, 733-735 (1984)].

Ehrich ascites tumor = conditions: cited from earlier work
[2] = tested on: conversion of arachidonic acid into prostaglandin H2; conditions: N. Kitahara et al., J. Antibiotics, 34, 1556-1561 (1981); cited from earlier work
Meth-A solid tumor = assay: Inhibition of tumor growth in vivo (Meth-A solid tumor, Balb/c mouse); set-up: species or system murine (female Balb/c mouse); conditions: intraperitoneal, once a day for 4 days; for Tumor weight: tumor weighed two weeks after transplantation, mean ± standard deviation; for Inhibition of tumor growth: two weeks after transplantation, versus control
Protocol: The inhibition of tumor growth by the compounds of the present invention in vivo were evaluated in the following manner. 10^6 cells of Meth-A murine tumor cells were transplanted to the dorsal subcutaneous part of a female Balb/c mouse aged 6 weeks. On the next day of the transplantation, a test compound at each concentrations was intraperitoneally administered to the animal. The compound was suspended in a 1% solution of carboxymethyl cellulose (CMC) and thoroughly mixed ultrasonically. Alternately, it was thoroughly ground in a mortar and then suspended in a CMC solution. Thus a sample for injection was prepared. The test compound was administered once a day for 4 days continuously. To a control group, a 1% solution of CMC was administered once a day for 4 days continuously. Two weeks after the transplantation, the dorsal tumor was taken out and weighed to thereby determine the inhibition of tumor growth.

## [C-]#[N+]C(=Cc1ccc(OC)cc1)C(=Cc1ccc(OCc2ccccn2)cc1)[N+]#[C-] [Compound No. 6, 1-[4'-(2"-pyridyl)methyloxyphenyl]-4-(4'-methoxyphenyl)-2,3-diisocyano-1,3-butadiene]
[1]
  LD50: > 120 mg/kg
Meth-A cells
  IC50: 0.24 µg/mL (≈ 0.61 µM)

## [C-]#[N+]C(=Cc1ccc(OC)cc1)C(=Cc1ccc(OCc2ccncc2)cc1)[N+]#[C-] [Compound No. 5, 1-[4'-(4"-pyridyl)methyloxyphenyl]-4-(4'-methoxyphenyl)-2,3-diisocyano-1,3-butadiene]
Meth-A cells
  IC50: 0.7 µg/mL (≈ 1.78 µM)

## [C-]#[N+]C(=Cc1ccc(O)cc1)C(=Cc1ccc(OC)cc1)[N+]#[C-] [xanthocillin X monomethyl ether, 1-(4'-hydroxyphenyl)-2,3-diisocyano-4-(4'-methoxyphenyl)-1,3-butadiene]
Ehrich ascites tumor; during administration
  proliferation of Ehrich ascites tumor: would suppress the proliferation of Ehrich ascites tumor
Ehrich ascites tumor; immediately after stopping the administration
  proliferation of cancer cells after stopping the administration: the cancer cells would proliferate again immediately after stopping the administration of this compound
[2]
  inhibition of biosynthesis of prostaglandin or thromboxane: would inhibit the biosynthesis of prostaglandin or thromboxane

## [C-]#[N+]C(=Cc1ccc(OC)cc1)C(=Cc1ccc(OCCCCCC)cc1)[N+]#[C-] [Compound No. 4, 1-(4'-n-hexyloxyphenyl)-4-(4'-methoxyphenyl)-2,3-diisocyano-1,3-butadiene]
Meth-A solid tumor; 30 mg/kg/day
  Tumor weight: 0.27 ± 0.20 g
  Inhibition of tumor growth: 71.9%

## [C-]#[N+]C(=Cc1ccc(OC)cc1)C(=Cc1ccc(OCC(=O)OCC)cc1)[N+]#[C-] [Compound No. 1]
[1]
  LD50: 120 mg/kg
Meth-A cells
  IC50: 0.64 µg/mL (≈ 1.65 µM)
Meth-A solid tumor; 10 mg/kg/day
  Tumor weight: 0.39 ± 0.08 g
  Inhibition of tumor growth: 67.5%

## [C-]#[N+]C(=Cc1ccc(OC)cc1)C(=Cc1ccc(OCc2ccc(Cl)cc2)cc1)[N+]#[C-] [Compound No. 9, 1-[4'-(4"-chlorophenyl)methyloxyphenyl]-4-(4'-methoxy-phenyl)-2,3-diisocyano-1,3-butadiene]
[1]
  LD50: > 300 mg/kg
Meth-A cells
  IC50: 1.8 µg/mL (≈ 4.22 µM)
Meth-A solid tumor; 30 mg/kg/day
  Tumor weight: 0.60 ± 0.50 g
  Inhibition of tumor growth: 68.4%

## [C-]#[N+]C(=Cc1ccc(OC)cc1)C(=Cc1ccc(OC(=O)c2ccccc2)cc1)[N+]#[C-] [Compound No. 8, 1-(4'-benzoyloxyphenyl)-4-(4'-methoxyphenyl)-2,3-diisocyano-1,3-butadiene]
[1]
  LD50: > 300 mg/kg
Meth-A cells
  IC50: 1.7 µg/mL (≈ 4.18 µM)
Meth-A solid tumor; 30 mg/kg/day
  Tumor weight: 1.40 ± 0.30 g
  Inhibition of tumor growth: 26.3%

## [C-]#[N+]C(=Cc1ccc(OC)cc1)C(=Cc1ccc(OCCF)cc1)[N+]#[C-] [Compound No. 3, 1-[4'-(2"-fluoroethyl)oxyphenyl]-4-(4'-methoxyphenyl)-2,3-diisocyano-1,3-butadiene]
[1]
  LD50: > 120 mg/kg
Meth-A cells
  IC50: 1.5 µg/mL (≈ 4.31 µM)

## [C-]#[N+]C(=Cc1ccc(OC)cc1)C(=Cc1ccc(OCc2ccc(C)cc2)cc1)[N+]#[C-] [Compound No. 7, 1-[4'-(4"-toluyl)methyloxyphenyl]-4-(4'-methoxyphenyl)-2,3-diisocyano-1,3-butadiene]
Meth-A cells
  IC50: 1.8 µg/mL (≈ 4.43 µM)
Meth-A solid tumor; 30 mg/kg/day
  Tumor weight: 0.60 ± 0.20 g
  Inhibition of tumor growth: 68.4%

## [C-]#[N+]C(=Cc1ccc(OC)cc1)C(=Cc1ccc(OCc2ccccc2)cc1)[N+]#[C-] [Compound No. 2, 1-(4'-benzyloxyphenyl)-4-(4'-methoxyphenyl)-2,3-diisocyano-1,3-butadiene]
Meth-A cells
  IC50: 0.7 µg/mL (≈ 1.78 µM)
Meth-A solid tumor; 30 mg/kg/day
  Tumor weight: 0.22 ± 0.04 g
  Inhibition of tumor growth: 67.6%
